Measurements as given in patent US20130171105A1, “CANCER THERAPY USING A COMBINATION OF A HSP90 INHIBITORY COMPOUND AND A TOPOISOMERASE II INHIBITOR” (SYNTA PHARMACEUTICALS CORP., priority 2010, published 2013).

Columns and labels:
[1] = tested on: K562 chronic myelogenous leukemia cells; assay: Cell viability, Alamar Blue assay; settings: Homo sapiens, K562, 72 h, read-out: IC50 (cell viability)
Method: Human K562 chronic myelogenous leukemia cells (American Type Culture Collection) were grown in RPMI medium with 2 mM L-glutamine, antibiotics (100 IU/ml penicillin and 100 μg/ml streptomycin) and 10% fetal bovine serum (Sigma Aldrich). Cells were maintained at 37° C., 5% CO2 atmosphere and subcultured at 1×10^6 cells/mL.
Cell viability was measured using the Alamar Blue assay (Invitrogen). In brief, cells were plated in 96-well plates in triplicate at 2000 cells per well and incubated at 37° C., 5% CO2 atmosphere for 24 hr prior to the addition of drug or vehicle (0.3% DMSO) to the culture medium. After 72 hr, 10 μl/well Alamar Blue was added to the wells and incubated for an additional 3 hr at 37° C., 5% CO2 atmosphere. Fluorescence (560Ex/590Em nM) was measured with a SpectraMax microplate reader (Molecular Devices) and the resulting data were used to calculate cell viability, normalized to vehicle control.
After 72 hr exposure to drug, cell viability was measured and results were fit to a four parameter logistic model (XLFit, ID Business Solutions) shown in FIG. 1.

topoisomerase II = molecular target: T1, topoisomerase II (Homo sapiens, UniProt P11388); assay: kDNA decatenation assay (Topo II assay); assay type: biochemical; set-up: key: + (some inhibition); + (some inhibition) < ++ < +++; ++ < +++ < ++++; ++++ (complete inhibition); settings: kDNA substrate, 37° C. for 30 min, agarose gel
T1 construct: purchased TopoGEN, Inc
Method: The ability of compounds of the formulae (I) or (Ia) to inhibit the activity of topoisomerase II was examined with a kDNA decatenation assay (TopoGEN, Inc. Port Orange, Fla.). Substrate kDNA was mixed with compounds and incubated at 37° C. for 30 min. The reaction was stop by adding ⅕ volume of stop buffer. 20 μl of the reaction was loaded on 1% agarose gel. Image of decatenation of kDNA by compounds was taken by Kodak Image Station 440. Table 1 indicates the ability of compound 1 inhibiting the activity of topoisomerase II.

T1 sequence (P11388 whole entry): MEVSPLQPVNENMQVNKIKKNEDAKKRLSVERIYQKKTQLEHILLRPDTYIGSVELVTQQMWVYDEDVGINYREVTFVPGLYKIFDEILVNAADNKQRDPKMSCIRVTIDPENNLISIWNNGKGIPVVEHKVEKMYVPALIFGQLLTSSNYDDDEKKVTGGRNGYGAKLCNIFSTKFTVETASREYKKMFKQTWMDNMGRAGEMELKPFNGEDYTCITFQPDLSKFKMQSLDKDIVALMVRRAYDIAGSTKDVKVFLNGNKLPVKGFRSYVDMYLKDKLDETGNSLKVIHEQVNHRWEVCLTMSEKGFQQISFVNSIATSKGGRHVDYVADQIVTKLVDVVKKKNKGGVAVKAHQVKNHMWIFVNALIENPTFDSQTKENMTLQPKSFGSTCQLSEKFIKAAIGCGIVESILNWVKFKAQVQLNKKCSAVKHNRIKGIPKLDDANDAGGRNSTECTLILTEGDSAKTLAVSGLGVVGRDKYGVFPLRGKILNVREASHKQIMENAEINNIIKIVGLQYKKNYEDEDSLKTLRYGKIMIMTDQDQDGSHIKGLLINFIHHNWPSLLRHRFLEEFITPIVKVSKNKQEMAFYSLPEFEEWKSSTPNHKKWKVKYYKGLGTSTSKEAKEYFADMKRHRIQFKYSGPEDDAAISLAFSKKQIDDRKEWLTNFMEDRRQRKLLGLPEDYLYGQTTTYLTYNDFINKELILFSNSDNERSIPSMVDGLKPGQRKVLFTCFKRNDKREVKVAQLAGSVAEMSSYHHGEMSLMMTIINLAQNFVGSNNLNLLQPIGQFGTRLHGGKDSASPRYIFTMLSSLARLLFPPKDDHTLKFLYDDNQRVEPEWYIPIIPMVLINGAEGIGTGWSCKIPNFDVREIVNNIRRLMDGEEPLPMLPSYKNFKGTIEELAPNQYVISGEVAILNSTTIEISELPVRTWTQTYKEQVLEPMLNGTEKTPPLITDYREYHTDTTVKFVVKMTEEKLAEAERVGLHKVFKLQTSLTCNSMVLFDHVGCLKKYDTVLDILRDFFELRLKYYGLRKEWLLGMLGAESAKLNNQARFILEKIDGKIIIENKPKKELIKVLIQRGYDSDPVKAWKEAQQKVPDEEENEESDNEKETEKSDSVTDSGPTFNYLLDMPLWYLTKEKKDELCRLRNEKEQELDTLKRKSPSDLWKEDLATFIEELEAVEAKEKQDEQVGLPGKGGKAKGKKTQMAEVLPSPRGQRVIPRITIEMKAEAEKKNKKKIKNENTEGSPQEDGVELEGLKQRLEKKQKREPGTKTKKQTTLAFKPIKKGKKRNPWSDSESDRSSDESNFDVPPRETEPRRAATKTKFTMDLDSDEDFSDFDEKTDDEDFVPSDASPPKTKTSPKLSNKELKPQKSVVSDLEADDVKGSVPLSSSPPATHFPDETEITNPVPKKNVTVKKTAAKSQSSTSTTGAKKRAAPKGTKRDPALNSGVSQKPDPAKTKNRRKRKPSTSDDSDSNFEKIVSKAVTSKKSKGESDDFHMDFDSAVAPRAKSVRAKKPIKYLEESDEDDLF

SMILES | IC50 [1] [nM] | Topo II assay (effectiveness at inhibition) (topoisomerase II)
COc1cc([C@@H]2c3cc4c(cc3[C@@H](O[C@@H]3O[C@@H]5CO[C@@H](C)O[C@H]5[C@H](O)[C@H]3O)[C@H]3COC(=O)[C@H]23)OCO4)cc(OC)c1O [etoposide, reference compound] | 21 | –
CC(C)c1cc(-c2nnc(O)n2-c2ccc3c(ccn3C)c2)c(O)cc1O [Compound 1, 3-(2,4-DIHYDROXY-5- ISOPROPYL-PHENYL)-4-(1- METHYL-INDOL-5-YL)-5- HYDROXY-[1,2,4] TRIAZOLE] | 16 | +
